Each structure is given as a SMILES string. Bounds are passed on as bounds.

The subject of one data set is Caco-2 cells. Details: method as in PMID 39879378. As to conditions: Caco-2, in 0.2% DMSO, 24 h and 48 h; cited from earlier work.
The next data set has as its system hERG. Details: method as in PMID 32582345. The note with it: preclinical assessment; cited from earlier work.
A further data set has as its system HepG2 cells. Details: method as in PMID 39879378. The note with it: HepG2, in 0.2% DMSO, 24 h and 48 h; cited from earlier work.
In the next data set the test system is CYP450. Details: method as in PMID 32582345. As to conditions: preclinical assessment; cited from earlier work.
On the set-up of data set [1]: method as in PMID 39879378. The note with it: PAMPA, cited from earlier work. (PAMPA measures passive passage across an artificial lipid membrane.)
The subject of another data set is PPARα. Further details: method as in PMID 32096640, PMID 39961437. As to conditions: cited from earlier work.
Details of data set [2]: method as in PMID 32582345. As to conditions: preclinical assessment; cited from earlier work.
A short description of data set [3]: Bioconversion of prodrugs in rabbit plasma. The data set is classed as in vitro ADME. The note with it: 37 °C; for half-life at 100 μM / Prodrug bioconversion half-life (Rabbit plasma): 100 μM prodrug; for half-life at 100 μM: pooled rabbit plasma; for Prodrug bioconversion half-life (Rabbit plasma): Figure 3E. How it is done: (§1) Conversion of the respective prodrugs to the parent drug A190 was assessed in pooled rat and rabbit plasma. Following pre-incubation of plasma at 37 °C for 5 min, stock solution of each prodrug (10 mM) was spiked into the plasma to reach a final concentration of 100 μM. The mixture was incubated at 37 °C, 200 rpm on a temperature-controlled orbital shaker. Incubation mixture (200 μL) was withdrawn at pre-determined time points, and the reaction was terminated by the addition of 700 μL of ice cold ACN. 100 μL of internal standard (0.5 μg/mL of fenofibric acid) was then spiked, and the samples were vortexed and centrifuged at 10,000× g for 10 min. The resulting supernatants were collected and filtered using PTFE filters and injected into HPLC-UV system. The LC system was a reverse phased Shimadzu Prominence (Kyoto, Japan) using a Pursuit 5 C18 column. Isocratic separation was performed with mobile phase consisting of ACN/water (80/20 v/v) containing 0.1% trifluoroacetic acid and monitored at a UV detection of 227 nm.

Data set [4] is described as follows: Bioconversion of prodrugs in rat plasma. The data set is classed as in vitro ADME. The note with it: 37 °C; for half-life at 100 μM / Prodrug bioconversion half-life (Rat plasma): 100 μM prodrug; for half-life at 100 μM: pooled rat plasma; for Prodrug bioconversion half-life (Rat plasma): Figure 3E. How it is done:
as §1

Data set [5] in a line: Chemical hydrolysis stability in PBS pH 7.4. The data set is classed as physicochemical. As to conditions: PBS pH 7.4, 37 °C, 100 μM. Here is the method: Chemical hydrolysis stability of each prodrug was assessed in a physiological pH 7.4 using phosphate buffered saline solution (PBS) as previously described. After preincubation of PBS solution at 37 °C for 5 min, stock solution of each prodrug (10 mM) was spiked to a final concentration of 100 μM. The samples were then incubated at 37 °C on a temperature-controlled orbital shaker operating at 200 rpm. At predetermined time points, 200 μL of incubation mixture was withdrawn and quenched with 100 μL of internal standard (0.5 μg/mL of fenofibric acid) and 700 μL ice cold ACN. Drug concentration was analyzed using HPLC-UV method as described earlier to assess the amount of prodrug recovered compared to the starting timepoint.

For the compound `Cc1cc(CNc2cccc(C(=O)O)c2)ccc1OCc1ccc(F)cc1` [A190, 3-((4-((4-fluorobenzyl)oxy)-3-methylbenzyl)amino)benzoic acid], the “concentration up to which safe” value in the data set with Caco-2 cells and in the data set on HepG2 cells was less than 50 µM each time. Besides, the hERG-related cardiotoxicity result with hERG is on record as “absence”. The CYP450 liability result in the data set on CYP450 was “absence”. For the same compound, the “effective permeability (Pe), dispersion form” value in [1] (dispersion form) is 0.13 ± 0.04 × 10^−6 cm/s. Moreover, in [1] (in PBS), the “effective permeability (Pe), A190 in PBS” value was 0.09 ± 0.02 × 10^−6 cm/s. In addition, in the data set on PPARα (PPAR-α over γ/δ isoforms), the subtype selectivity is listed as more than 2700 fold. For the same compound, in the data set on PPARα (PPARα agonism), the EC50 was less than 40 nM. In data set [2], the microsomal metabolic stability result was “acceptable”.
`CCOC(=O)c1cccc(NCc2ccc(OCc3ccc(F)cc3)c(C)c2)c1` [A190-PD-14, Ethyl 3-((4-((4-Fluorobenzyl)oxy)-3-Methylbenzyl)amino)benzoate]: in data set [3], the half-life at 100 μM was 8.2 h and the “Prodrug bioconversion half-life (Rabbit plasma)” value was 8.2 h. Also, in [4], the half-life at 100 μM is 2.6 h and the “Prodrug bioconversion half-life (Rat plasma)” value worked out at 2.6 h. In [5], the “drug remaining at 2 h” value is reported as 10%.
For the compound `Cc1cc(CNc2cccc(C(=O)OC(C)C)c2)ccc1OCc1ccc(F)cc1` [A190-PD-154, Isopropyl 3-((4-((4-Fluorobenzyl)oxy)-3-Methylbenzyl)amino)benzoate], in data set [3], the half-life at 100 μM was 1.4 h and the “Prodrug bioconversion half-life (Rabbit plasma)” value came out at 1.4 h. Also, in data set [4], the half-life at 100 μM was 6.8 h and the “Prodrug bioconversion half-life (Rat plasma)” value was found to be 6.8 h. In [5], the “drug remaining at 2 h” value was 10%.
Consider `COC(=O)c1cccc(NCc2ccc(OCc3ccc(F)cc3)c(C)c2)c1` [A190-PD-9, Methyl 3-((4-((4-Fluorobenzyl)oxy)-3-Methylbenzyl)amino)benzoate], for which, in [3], the half-life at 100 μM is 7.2 h and the “Prodrug bioconversion half-life (Rabbit plasma)” value came out at 7.2 h. Further, the “original concentration retained after 120 min in rabbit plasma” value in [3] (100 μM, 120 min) is reported as not below 80%. In data set [4], the half-life at 100 μM was 9.6 h and the “Prodrug bioconversion half-life (Rat plasma)” value was determined as 9.6 h. The “original concentration retained after 120 min in rat plasma” value in [4] (100 μM, 120 min) was not below 80%. In data set [5], the “drug remaining at 2 h” value is “about 40%”.

As a reminder, the EC50 is the midpoint of the concentration-response curve. Broadly, the half-life is how long it takes for the measured level to halve.

The record behind these values is paper PMC12383972, “Oral Pharmacokinetic Evaluation of a Microemulsion-Based Delivery System for Novel A190 Prodrugs” (Biomolecules, 2025).
